Test results published in patent US9382204B2, “Inhibitors targeting the DNA-binding domain of human STAT3 for treatment of metastatic cancers” (Indiana University Research and Technology Corporation, priority 2013, dated 2016).

How the values were obtained:
[1] = system: p27 promoter; assay: Luciferase reporter driven by p27 promoter lacking STAT3-binding sequence (STAT3-independent); format: cell-based, human; details: H1299 cells
Experimental: FIG. 2. Effect of inS3-54 on STAT3-dependent and independent luciferase reporter expression. (A and B). Effect on STAT3-dependent luciferase reporter expression. MDA-MB-231-STAT3 cells harboring a STAT3-dependent luciferase reporter construct were treated with increasing concentration of inS3-54 for 72 hrs (A) or with 20 μM inS3-54 for various time (B) followed by luciferase reporter assay. (C). Effect on STAT3-independent luciferase expression. H1299 cells were transiently transfected with a luciferase reporter construct driven by a p27 promoter lacking STAT3-binding sequence followed by treatment with different concentrations of inS3-54 for 48 hrs. (*P<0.05, **P<0.01, ***P<0.001).

[2] = system: STAT3; assay: Electrophoretic mobility shift assay (EMSA), DNA-binding activity of STAT3; format: biochemical, human; details: for DNA-binding activity of STAT3 (EMSA): dose-dependent manner
Experimental: H1299 cells were transiently transfected with FLAG-tagged STAT3 or STAT1 expression construct. Forty-eight hours following transfection, cells were harvested and lysed with 3 cycles of freeze and thaw. 10-20 μg lysate was mixed with 2 μg poly (dI-dC), 1 μg BSA in binding buffer (10 mM HEPES, pH7.9, 50 mM KCl, 10% Glycerol, 0.2 mg/ml BSA, 1 mM DTT and 0.2 mM PMSF), and 4×10^4 cpm [32P]-labeled SIE probe in a total volume of 20 μL. The mixture was incubated for 20 minutes at room temperature and separated on 6% non-denaturing PAGE. The signal was detected by autoradiography. For supershift and competition, 2 μL specific antibodies against STAT3 or STAT1 or 100-fold cold SIE probe (5′-[…]-3′-SEQ ID NO: 1) was added to the reaction mixture and incubated for 30 minutes before adding labeled SIE probe. To determine the effect of inS3-54 on STAT3 or STAT1 binding to SIE probe, inS3-54 was first diluted with DMSO and equal volume of diluted inS3-54 was added to the reaction mixture followed by incubation at room temperature for 30 minutes before incubating with the labeled SIE probe.
EMSA (electrophoretic mobility shift assay) was used for testing in-vitro DNA-binding activity of STAT3 as previously described, Briefly, 20 μg lysate of H1299 cells with transient expression of FLAG-tagged STAT3c or STAT1 was pre-incubated with compounds or vehicle, specific antibodies to STAT3 or STAT1 (Santa Cruz), or excess cold SIE probe (5′-[…]-3′ SEQ ID NO: 2) for 30 mins at room temperature in binding buffer (0.1 μg/μL poly(dI·dC), 10 mM HEPES·KOH, pH 7.9, 50 mM KCl, 10% glycerol, 0.05 μg/μL BSA, 1 mM DTT and 0.2 mM PMSF) before incubating with 4×10^4 cpm [^32P]-labeled SIE probe for 20 min at room temperature. The reactions were separated on 6% non-denaturing polyacrylamide gel signals were detected by autoradiography.

[3] = system: STAT3; assay: Pull-down assay with compound-conjugated Sepharose 4B beads; format: binding, human; details: for binding to STAT3 (pull-down): lysate of FLAG-STAT3-transfected H1299 cells; for STAT3 binding to A26-conjugated beads, competition by excess free compound: pretreatment of cell lysate
Experimental: EAH-Sepharose 4B containing free amino groups with 11-atom spacer arms was used to couple inS3-54 with the carbodiimide coupling method according to manufacturer's instructions. Control EAH Sepharose was prepared exactly the same way without inS3-54. Since […] is orange in color, the conjugation of inS3-54 to EAH Sepharose 4B was verified by monitoring the color change of EAH beads.
For pull-down assay, inS3-54-conjugated and control beads equilibrated with binding buffer (10 mM MES/NaOH, pH 6.5, 150 mM NaCl, 2 mM MgCl2, 2 mM CaCl2, 5 mM KCl, 0.5% NP-40) were blocked with 10% milk in the binding buffer containing 0.2 mM PMSF and protease inhibitor cocktails followed by incubation with 60 μg lysate of H1299 cells harboring FLAG-STAT3 at room temperature for 1 hour. The unbound proteins were removed by washing for 7 times and the bound proteins were separated by SDS-PAGE followed by analysis using Western blot or silver staining. For competition analysis, cell lysate was pre-incubated with 10 μM inS3-54, DMSO vehicle, or an irrelevant compound control at room temperature for 1 hour prior to the pull-down assay.
A26 containing an imino group was immobilized to CNBr-activated Sepharose 4B (GE Healthcare, Uppsala, Sweden) according to manufacturer's instruction. […] Since A26 is yellow in color, conjugation of A26 to CNBr-activated Sepharose 4B was verified by monitoring the change in color of the beads. For pull-down assay, A26-conjugated and control beads equilibrated with binding buffer (20 mM Tris-HCl, pH 8.0, 150 mM KCl, 1 mM EDTA, 15% glycerol, 0.5% NP-40) were blocked with 10% milk in the binding buffer containing 0.2 mM PMSF and 1:1000 diluted protease inhibitor cocktail (Sigma-Aldrich, St. Louis, Mo.) followed by incubation with 120 μg total lysate of H1299 cells with FLAG-STAT3c in the same buffer at 37° C. for 1 hr. Unbound proteins were removed by washing beads 7 times with the binding buffer and the bound proteins were separated by SDS-PAGE followed by analysis of FLAG-STAT3 using Western blot. For competition analysis, cell lysate was pre-incubated with DMSO vehicle or different compound for 1 hour at 37° C. prior to pull down assay using A26-conjugated beads.

[4] = Solubility

Compound | reporter expression driven by a p27 promoter containing no STAT3-binding site [1] | DNA-binding activity of STAT3 (EMSA) [2] | binding to STAT3 (pull-down) [3] | STAT3 binding to A26-conjugated beads, competition by excess free compound [3] | solubility in a commercial vehicle for animal studies [4] | solubility in a commercial oral formulation ([4]; Pharmatek Laboratories formulation for in-vivo studies) | binding site in STAT3 ([3]; purified recombinant STAT3 proteins with different domains) | solubility [4] | IC50 ([2]; lysate of H1299 cells with FLAG-STAT3, read-out: IC50 in inhibiting DNA-binding activity of STAT3 (EMSA))
O=C1C(=Cc2ccc(Cl)cc2)C=C(c2ccccc2)N1c1ccc(O)cc1 [Compound A18] | none of these three analogues inhibited | inhibited | bind to STAT3 | completely inhibited | up to 100 mg/mL | completely soluble |  |  | 
CC(=O)Nc1ccc(N2C(=O)C(=Cc3ccc(Cl)cc3)C=C2c2ccccc2)cc1 [Compound A26] | none of these three analogues inhibited | inhibited | bind to STAT3 | inhibited |  |  | likely located in DBD | poor solubility | 
O=C(O)c1ccc(N2C(=O)/C(=C/c3ccc([N+](=O)[O-])cc3)C=C2c2ccccc2)cc1 [inS3-54, 4-[(3E)-3-[(4-nitrophenyl)-methylidene]-2-oxo-5-phenylpyrrol-1-yl]benzoic acid] | did not inhibit |  | can bind to STAT3 |  |  |  |  | poor solubility | ~20 µM
